From article PMC10884005, “Euglena’s atypical respiratory chain adapts to the discoidal cristae and flexible metabolism” (Nature Communications, 2024) come the findings set out here.

One experiment addresses T1, S. scrofa CI (Sus scrofa, UniProt A0A4X1SZP7).
T1 construct: gene NDUFV1; native purified mitochondrial complex I; with NADH dehydrogenase [ubiquinone] flavoprotein 2, mitochondrial; NADH-ubiquinone oxidoreductase 75 kDa subunit, mitochondrial
The experiment is described as follows: NADH oxidation at […] nm. As to conditions: 200 μM DQ, 300 μM NADH, pH 7.4; thermal deactivation assay. The format is biochemical.

The target of experiment [1] is T2, Eg-CI (ubiquinone / rotenone site).
T2 construct: gene ND1; native mitochondrial complex I, LMNG-solubilised, 59 subunits (16 core), ion exchange and SEC; cells catalogue GY-D32; with NADH dehydrogenase [ubiquinone] flavoprotein 1, mitochondrial; NADH-ubiquinone oxidoreductase 75 kDa subunit, N-terminal part; NADH-ubiquinone oxidoreductase 75 kDa subunit, C-terminal part
The experiment is described as follows: NADH-DQ oxidoreductase, NADH oxidation at […] nm. Type of experiment: biochemical, Euglena gracilis. As to conditions: 10 nM Eg-CI, 200 μM decylubiquinone, 250 μM NADH, pH 7.4, 0.1% digitonin, room temperature.

T1 sequence (A0A4X1SZP7 21-464): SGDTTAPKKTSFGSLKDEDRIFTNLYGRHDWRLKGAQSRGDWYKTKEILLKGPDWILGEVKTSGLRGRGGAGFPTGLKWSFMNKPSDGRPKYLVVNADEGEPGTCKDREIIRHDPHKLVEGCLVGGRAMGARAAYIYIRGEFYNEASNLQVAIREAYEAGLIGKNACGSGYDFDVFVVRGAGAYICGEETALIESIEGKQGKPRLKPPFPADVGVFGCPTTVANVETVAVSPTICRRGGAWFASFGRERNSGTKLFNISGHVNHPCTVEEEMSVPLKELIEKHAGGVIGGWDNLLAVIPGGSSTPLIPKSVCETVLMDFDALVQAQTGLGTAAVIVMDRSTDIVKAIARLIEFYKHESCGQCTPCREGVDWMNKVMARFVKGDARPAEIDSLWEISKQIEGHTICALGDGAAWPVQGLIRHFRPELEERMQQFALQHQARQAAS

As for `NC(=O)C1=CN([C@@H]2O[C@H](COP(=O)(O)OP(=O)(O)OC[C@H]3O[C@@H](n4cnc5c(N)ncnc54)[C@H](O)[C@@H]3O)[C@@H](O)[C@H]2O)C=CC1` [NADH], the “NADH oxidation at 340 nm” value on S. scrofa CI is “Thermal deactivation assays of S. scrofa CI (a)”.
The term IC50 denotes the concentration that gives 50% inhibition. Take `C=C(C)[C@H]1Cc2c(ccc3c2O[C@@H]2COc4cc(OC)c(OC)cc4[C@@H]2C3=O)O1` [rotenone]: the IC50 in experiment [1] is roughly 11 µM.
